PubChem BioAssay (NCI)
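Tested at 5 concentrations; 48 h exposure; 96-well plates; endpoints linearly interpolated, else capped at highest concentration. Here, GI50 denotes the concentration required for 50% inhibition of growth. Definition used: TGI = concentration required for complete inhibition of growth.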

Key:
Experiment in all cases: growth of human tumour cells (NCI), 48 h
786-0 renal = system: 786-0 renal
A498 renal = system: A498 renal
CCRF-CEM leukemia = system: CCRF-CEM leukemia
HOP-92 NSCLC = system: HOP-92 NSCLC
K-562 leukemia = system: K-562 leukemia
NCI-H460 lung = system: NCI-H460 lung
RPMI-8226 leukemia = system: RPMI-8226 leukemia
SF-295 CNS = system: SF-295 CNS
SW-620 colon = system: SW-620 colon
TK-10 renal = system: TK-10 renal

Row | Structure (SMILES) | GI50 (786-0 renal) | TGI (786-0 renal) | GI50 (A498 renal) | TGI (A498 renal) | GI50 (CCRF-CEM leukemia) | TGI (CCRF-CEM leukemia) | GI50 (HOP-92 NSCLC) | TGI (HOP-92 NSCLC) | GI50 (K-562 leukemia) | TGI (K-562 leukemia) | GI50 (NCI-H460 lung) | TGI (NCI-H460 lung) | GI50 (RPMI-8226 leukemia) | TGI (RPMI-8226 leukemia) | GI50 (SF-295 CNS) | TGI (SF-295 CNS) | GI50 (SW-620 colon) | TGI (SW-620 colon) | GI50 (TK-10 renal) | TGI (TK-10 renal)
1 | CCCCCCCC[N+](C)(CCCCCCCC)CCCCCCCC | 0.345 µM | 1.3 µM | 0.563 µM | 1.54 µM | 0.189 µM | 0.525 µM | 0.214 µM | 0.803 µM | 0.108 µM | 0.447 µM | 0.43 µM | 1.45 µM | 0.0463 µM | 0.242 µM | 0.261 µM | 0.826 µM | 0.338 µM | 1.46 µM | 0.352 µM | 1.19 µM
2 | Cc1ccc(Cl)c(NC(=O)C(=O)C(C(=O)c2ccncc2)C2OC(=O)c3ccccc32)c1 (stereo not given) |  | > 100 µM |  | > 100 µM |  | > 100 µM |  | > 100 µM |  | > 100 µM |  | > 100 µM |  | > 100 µM |  | > 100 µM |  | > 100 µM |  | > 100 µM
3 | CN(C)CCCc1c[nH]c2ccccc12 |  | > 100 µM |  | > 100 µM |  | > 100 µM |  | > 100 µM |  | > 100 µM |  | > 100 µM |  | > 100 µM |  | > 100 µM |  | > 100 µM |  | > 100 µM
4 | CCCN(CCC)c1ccc(/C=N/NC(=O)c2cccnc2)c(Cl)c1 | 11.6 µM | 29.1 µM | 0.161 µM | 0.318 µM | 15 µM | > 100 µM | 8.95 µM | 25.2 µM | 3.75 µM | > 100 µM | 3.63 µM | 17.2 µM | 15.7 µM | 69.9 µM | 3.39 µM | 16.7 µM | 8.07 µM | 28.6 µM | 0.5 µM | 3.15 µM
5 | CC1=C(C(=O)Nc2ccc(Cl)c(Cl)c2)C(c2ccco2)C(C(=O)Nc2ccc(Cl)c(Cl)c2)=C(C)N1 |  | 25.8 µM |  | 26.6 µM |  | 27.7 µM |  | 31.2 µM |  | 29 µM |  | 31.6 µM |  | 38.4 µM |  | 20.5 µM |  | 28.3 µM |  | 18.9 µM
6 | COc1ccc2c(c1)CC[C@@H]1[C@@H]2CC[C@]2(C)C(c3ccco3)=C(C=O)C[C@@H]12 | 23.1 µM | 55.5 µM | 26.1 µM | 64.8 µM | 1.86 µM | 4.85 µM | 8.38 µM | 28 µM | 3.56 µM | 22.7 µM | 5.75 µM | 35.7 µM | 3.89 µM | 32.7 µM | 3.4 µM | 12.8 µM | 6.26 µM | > 100 µM | 4.93 µM | 21.2 µM
7 | Nc1ncnc2c1ncn2C1OC(CO)=CC1O (stereo not given) |  | > 37.5 µM |  | > 37.5 µM |  | > 37.5 µM |  | > 37.5 µM |  | > 37.5 µM |  | > 37.5 µM |  | > 37.5 µM |  | > 37.5 µM |  | > 37.5 µM |  | > 37.5 µM
8 | COC1=CC(c2ccc[nH]2)=N/C1=C\c1ccc[nH]1 | 0.192 µM | 0.712 µM | 3.65 µM | 14.4 µM | 0.0231 µM | 14 µM | 0.199 µM | 1.26 µM | 0.273 µM | > 32.7 µM | 0.0595 µM | 10.9 µM | 0.0651 µM | 0.57 µM | 0.58 µM | 3.17 µM | 0.0393 µM | 13.8 µM | 0.232 µM | 7.79 µM
9 | OCC12C3C4C1C1C2C3C41CO (stereo not given) |  | > 100 µM |  | > 100 µM |  | > 100 µM |  | > 100 µM |  | > 100 µM |  | > 100 µM |  | > 100 µM |  | > 100 µM |  | > 100 µM |  | > 100 µM
10 | CCOC(=O)c1cn(Cc2ccccc2)c(=O)n1Cc1ccccc1 |  | > 100 µM |  | > 100 µM |  | > 100 µM |  | > 100 µM |  | > 100 µM |  | > 100 µM |  | > 100 µM |  | > 100 µM |  | > 100 µM |  | > 100 µM
